15 compounds from PubChem BioAssay AID1259408 (Genetic Toxicology Data Bank (GENE-TOX), 2018) can be followed below.

The data set relates to GENE-TOX genotoxicity assays, various organisms and cells. The experiment in a line: GENE-TOX mutagenicity studies. The settings on record: for call: Assay Type: In vivo carcinogenicity studies. An excerpt: GENE-TOX provides genetic toxicology (mutagenicity) test data from expert peer review of open scientific literature for more than 3,000 chemicals from the United States Environmental Protection Agency (EPA). GENE-TOX was established to select assay systems for evaluation, review data in the scientific literature, and recommend proper testing protocols and evaluation procedures for these systems.
GENE-TOX covers the years 1991 - 1998. It is no longer updated.
This is an archive assay for GENE-TOX mutagenicity studies.

The mark [1] stands for this setting: Species/Cell Type: Salmonella typhimurium (one or more of the five standard strains: TA98, TA100, TA1535, TA1537, and TA1538), Assay Type: Histidine reverse gene mutation, Ames assay, Assay Code: SAL-, Evaluation Type: Evaluation A (Pre-1980).
Setting [2] is: Species/Cell Type: Nonhuman, Assay Code: CCG+L, Evaluation Type: Evaluation A (Pre-1980).
[3] abbreviates: Species/Cell Type: Human, Assay Type: Sister-chromatid exchange (SCE) in vitro, Assay Code: SC1+D, Dose Response: With dose response, Evaluation Type: Evaluation B (Post-1980).
Where [4] appears, read: Species/Cell Type: Mouse, Sex: Male, Assay Type: Sperm morphology, Assay Code: SPI-, Evaluation Type: Evaluation A (Pre-1980).
The mark [5] stands for this setting: Species/Cell Type: Neurospora crassa, Assay Type: Aneuploidy, chromosome aberrations, Assay Code: NEN-, Evaluation Type: Evaluation A (Pre-1980).

The source made the active and inactive calls. The rule behind the calls is not given here.

`[Cl-].[Cl-].[Cl-].[Ru+3]`: under “Species/Cell Type: Bacillus subtilis (H17 vs M45), Assay Type: Rec-assay, spot test, DNA effects (bacterial DNA repair), Assay Code: REW-, Evaluation Type: Evaluation A (Pre-1980)”, the mutagenic call is “inactive; negative”.

For the compound `Cc1c2c(c3ccc4ccccc4c3c1C)CCC2=O`, the mutagenic call (Species/Cell Type: Salmonella typhimurium (one or more of the five standard strains: TA98, TA100, TA1535, TA1537, and TA1538), Assay Type: Histidine reverse gene mutation, Ames assay, Assay Code: SAL+*, Activation: With metabolic activation, Evaluation Type: Evaluation A (Pre-1980)) is “active; positive”.

Take `O=S(=O)(O)c1c(N=Nc2c(O)ccc3ccccc23)ccc2ccccc12`: the mutagenic call under setting [1] was “inactive; negative”.

Turning to `CC(COc1ccc(C(C)(C)C)cc1)OS(=O)OCCCl` (centres undefined), the call (Species/Cell Type: Nonhuman, Assay Code: CCG+, Evaluation Type: Evaluation A (Pre-1980)) is “active; positive”.

For the compound `ClC1C(Cl)C(Cl)C(Cl)C(Cl)C1Cl` (centres undefined), the mutagenic call runs as follows: (Species/Cell Type: Allium cepa, Assay Type: Chromosome aberrations, Assay Code: ALC+D, Dose Response: With dose response, Evaluation Type: Evaluation A (Pre-1980)) “active; positive”; (Species/Cell Type: Drosophila melanogaster, Assay Type: Sex-linked recessive lethal gene mutation, Assay Code: SRLT, Evaluation Type: Evaluation A (Pre-1980)) “no conclusion”; (Species/Cell Type: Hordeum vulgare (barley), Assay Type: Chromosome aberrations, Assay Code: HOC+D, Dose Response: With dose response, Evaluation Type: Evaluation A (Pre-1980)) “active; positive”; (Species/Cell Type: Saccharomyces cerevisiae, Assay Type: Mitotic recombination or gene conversion, Assay Code: YEC+, Evaluation Type: Evaluation A (Pre-1980)) “active; positive”; (Species/Cell Type: Saccharomyces cerevisiae, Assay Type: Reverse gene mutation, Assay Code: YER-*, Activation: With metabolic activation, Evaluation Type: Evaluation A (Pre-1980)) “inactive; negative”; (Species/Cell Type: Salmonella typhimurium, Serratia marcesens, Assay Type: Forward and reverse gene mutation, host-mediated assay, Assay Code: HM2T, Evaluation Type: Evaluation A (Pre-1980)) “no conclusion”. The mutagenic call is, setting by setting: (Species/Cell Type: Tradescantia species, Assay Type: Chromosome aberrations, Assay Code: TRC+D, Dose Response: With dose response, Evaluation Type: Evaluation A (Pre-1980)) “active; positive”; (Species/Cell Type: Vicia faba, Assay Type: Chromosome aberrations, Assay Code: VIC+D, Dose Response: With dose response, Evaluation Type: Evaluation A (Pre-1980)) “active; positive”. Further, the call under setting [2] is “active; positive”.

As to `CCO`, the mutagenic call is, setting by setting: (Species/Cell Type: Arabidopsis species, Assay Type: Gene mutation, Assay Code: ARM-, Evaluation Type: Evaluation A (Pre-1980)) “inactive; negative”; (Species/Cell Type: Aspergillus nidulans, Assay Type: Forward gene mutation, Assay Code: ASF-, Evaluation Type: Evaluation A (Pre-1980)) “inactive; negative”; (Species/Cell Type: Fischer rat embryo (RLV/1706) cells, Assay Type: Cell transformation, viral enhanced, Assay Code: CTR-, Evaluation Type: Evaluation A (Pre-1980)) “inactive; negative”; (Species/Cell Type: Human lymphocytes, Assay Type: Sister-chromatid exchange (SCE) in vitro, Assay Code: SCL+D, Dose Response: With dose response, Evaluation Type: Evaluation B (Post-1980)) “active; positive”; (Species/Cell Type: Human lymphocytes, Assay Type: Sister-chromatid exchange (SCE) in vitro, Assay Code: SCL-, Evaluation Type: Evaluation A (Pre-1980)) “inactive; negative”; under setting [3], “active; positive”. Besides, the mutagenic call by setting is: (Species/Cell Type: Human, Assay Type: Sister-chromatid exchange (SCE) in vitro, Assay Code: SC1-, Evaluation Type: Evaluation A (Pre-1980)) “inactive; negative”; (Species/Cell Type: Mammalian polychromatic erythrocytes, Assay Type: Micronucleus test, chromosome aberrations, Assay Code: MNT-, Evaluation Type: Evaluation A (Pre-1980)) “inactive; negative”; under setting [4], “inactive; negative”; under setting [5], “inactive; negative”; (Species/Cell Type: Nonhuman, Assay Type: Chromosome aberrations in vitro, Assay Code: CY&-, Evaluation Type: Evaluation A (Pre-1980)) “inactive; negative”; (Species/Cell Type: Nonhuman, Assay Type: Sister-chromatid exchange (SCE) in vitro, Assay Code: SC2+D, Dose Response: With dose response, Evaluation Type: Evaluation B (Post-1980)) “active; positive”. Moreover, the mutagenic call is, setting by setting: (Species/Cell Type: Nonhuman, Assay Type: Sister-chromatid exchange (SCE) in vitro, Assay Code: SC2-, Evaluation Type: Evaluation A (Pre-1980)) “inactive; negative”; (Species/Cell Type: Nonhuman, Assay Type: Sister-chromatid exchange (SCE) in vivo, Assay Code: SC3+, Evaluation Type: Evaluation B (Post-1980)) “active; positive”; (Species/Cell Type: Rodents, Sex: Male, Assay Type: Dominant lethal test, Assay Code: DLT+, Evaluation Type: Evaluation A (Pre-1980)) “active; positive”; under setting [1], “inactive; negative”; (Species/Cell Type: Syrian hamster embryo (SHE) cells, Assay Type: Cell transformation, clonal assay, Assay Code: CTC-, Evaluation Type: Evaluation A (Pre-1980)) “inactive; negative”; (Species/Cell Type: Tradescantia species, Assay Type: Gene mutation, Assay Code: TRM+D, Dose Response: With dose response, Evaluation Type: Evaluation A (Pre-1980)) “active; positive”. In addition, the mutagenic call (Species/Cell Type: Vicia faba, Assay Type: Chromosome aberrations, Assay Code: VIC+, Evaluation Type: Evaluation A (Pre-1980)) is “active; positive”. The call (Species/Cell Type: Nonhuman, Assay Code: CCG-L, Evaluation Type: Evaluation A (Pre-1980)) was “inactive; negative”.

Take `c1ccc2nc3ccccc3cc2c1`: the mutagenic call (Species/Cell Type: Saccharomyces cerevisiae, Assay Type: Forward gene mutation, Assay Code: YEFT, Evaluation Type: Evaluation A (Pre-1980)) is reported as “no conclusion”.

In the case of `Cc1ccc([N+](=O)[O-])o1`, the mutagenic call runs as follows: (Species/Cell Type: Bacillus subtilis (H17 vs M45T), Assay Type: Rec-assay, spot test, DNA effects (bacterial DNA repair), Assay Code: REX+, Evaluation Type: Evaluation A (Pre-1980)) “active; positive”; (Species/Cell Type: Syrian hamster embryo (SHE) cells, Assay Type: Cell transformation, clonal assay, Assay Code: CTC+, Evaluation Type: Evaluation A (Pre-1980)) “active; positive”.

Turning to `Cc1ccc2ccc3c(C)c4ccccc4c(C)c3c2c1`, the mutagenic call (Species/Cell Type: Chinese hamster lung (V79) cells, Assay Type: Forward gene mutation at the HPRT or ouabain locus, Assay Code: V79-*, Activation: With metabolic activation, Evaluation Type: Evaluation A (Pre-1980)) is “inactive; negative”.

On to `ClC(Cl)(Cl)C(Cl)(Cl)Cl`, for which the call under setting [2] is “active; positive”. Also, the mutagenic call reads like this: (Species/Cell Type: Saccharomyces cerevisiae, Assay Type: Mitotic recombination or gene conversion, Assay Code: YEH-, Evaluation Type: Evaluation A (Pre-1980)) “inactive; negative”; under setting [1], “inactive; negative”.

Consider `CC1=C(/C=C/C(C)=C/C=C/C(C)=C\C(=O)O)C(C)(C)CCC1`, for which, under setting [3], the mutagenic call is “active; positive”.

`OCC(F)(F)F`: the mutagenic call (Species/Cell Type: Salmonella typhimurium (one or more of the five standard strains: TA98, TA100, TA1535, TA1537, and TA1538), Assay Type: Histidine reverse gene mutation, Ames assay, Assay Code: SALT, Evaluation Type: Evaluation A (Pre-1980)) is listed as “no conclusion”.

For the compound `Nc1ccc(N)cc1`, the mutagenic call (Species/Cell Type: Allium cepa, Assay Type: Chromosome aberrations, Assay Code: ALC+, Evaluation Type: Evaluation A (Pre-1980)) is “active; positive”; the mutagenic call (Species/Cell Type: Drosophila melanogaster, Assay Type: Sex-linked recessive lethal gene mutation, Assay Code: SRL+, Evaluation Type: Evaluation A (Pre-1980)) was “active; positive”; the mutagenic call (Species/Cell Type: Fischer rat embryo (RLV/1706) cells, Assay Type: Cell transformation, viral enhanced, Assay Code: CTR+, Evaluation Type: Evaluation A (Pre-1980)) is “active; positive”; the mutagenic call (Species/Cell Type: Mammalian polychromatic erythrocytes, Assay Type: Micronucleus test, chromosome aberrations, Assay Code: MNTT, Evaluation Type: Evaluation A (Pre-1980)) is reported as “no conclusion”; the mutagenic call under setting [4] is “inactive; negative”; the mutagenic call under setting [5] is “inactive; negative”. Besides, the mutagenic call is “inactive; negative” (Species/Cell Type: Rodents, Sex: Male, Assay Type: Dominant lethal test, Assay Code: DLT-, Evaluation Type: Evaluation A (Pre-1980)) and “active; positive” (Species/Cell Type: Syrian hamster embryo (SA7/SHE) cells, Assay Type: Cell transformation, viral enhanced, Assay Code: CT7+, Evaluation Type: Evaluation A (Pre-1980)). In addition, the call (Species/Cell Type: Nonhuman, Assay Code: CCG-, Evaluation Type: Evaluation A (Pre-1980)) is “inactive; negative”.

As to `Clc1ccc(Cl)c(Cl)c1`, the mutagenic call (Species/Cell Type: Mammalian polychromatic erythrocytes, Assay Type: Micronucleus test, chromosome aberrations, Assay Code: MNT+, Evaluation Type: Evaluation B (Post-1980)) was “active; positive”.

On to `CN(N=O)C(=O)C(=O)N(C)N=O`, for which the mutagenic call was “active; positive” (Species/Cell Type: Arabidopsis species, Assay Type: Gene mutation, Assay Code: ARM+, Evaluation Type: Evaluation A (Pre-1980)) and “active; positive” (Species/Cell Type: Saccharomyces cerevisiae, Assay Type: Reverse gene mutation, Assay Code: YER+, Evaluation Type: Evaluation A (Pre-1980)).
